# Results reported in paper PMC9403610, “Efficient screening of pancreatic lipase inhibitors from cod meat hydrolysate through ligand fishing strategy” (Frontiers in Nutrition, 2022).
# Where no end group is shown, it is not given here.
# Assays:
# [1] = biological target: T1, Porcine pancreatic lipase (PL) (Sus scrofa, UniProt P00591); test: Assay of PLIs kinetics (reversibility, Lineweaver-Burk plots); format: biochemical; details: from slope of Lineweaver-Burk plot vs. peptide concentration; read-out: Ki (competitive inhibition constant)
# T1 construct: purchased Sigma Chemical Co. (St. Louis, MO, USA)
# T1 sequence (P00591 1-450): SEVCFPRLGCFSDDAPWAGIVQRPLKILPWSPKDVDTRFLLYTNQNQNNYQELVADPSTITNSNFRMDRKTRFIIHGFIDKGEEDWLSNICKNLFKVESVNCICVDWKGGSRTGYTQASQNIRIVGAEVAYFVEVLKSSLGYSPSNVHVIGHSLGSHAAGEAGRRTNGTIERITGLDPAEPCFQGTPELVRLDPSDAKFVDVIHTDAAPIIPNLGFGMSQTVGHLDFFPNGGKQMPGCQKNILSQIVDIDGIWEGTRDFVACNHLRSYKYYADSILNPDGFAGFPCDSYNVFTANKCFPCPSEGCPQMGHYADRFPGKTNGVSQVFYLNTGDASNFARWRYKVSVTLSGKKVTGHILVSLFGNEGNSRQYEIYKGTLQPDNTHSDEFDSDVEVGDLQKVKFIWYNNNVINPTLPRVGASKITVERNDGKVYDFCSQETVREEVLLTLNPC
# Description: According to the method reported in the previous literature, with a slight modification, the type of inhibition of PL by active peptides was determined ([29], [30]). The peptide (0.8 mg/mL, final concentration) was reacted with different concentrations (0, 5, 10, 15, 20 mg/mL) of PL for 10 min, then 10 mM pNPB was added for 10 min. the absorbance of the reaction system at a wavelength of 405 nm was measured to determine the reversibility of the reaction. Next, the optimal PL concentration (5 mg/mL) and peptide (0, 0.8 mg/mL, final concentration) were fixed, and pNPB with different concentrations (1, 2, 3, 4, and 5 mM) was added to react for 10 min, a value was measured every 30 s, and the wavelength was 405 nm. The Lineweaver-Burk double reciprocal curve was used to determine the maximum velocity (Vmax) and Michaelis–Menten constant (Km). The slope and y-intercept of the Lineweaver-Burk plot vs. peptide concentration give a straight line with the intercepts on the horizontal axis as Ki (competitive inhibition constant) and K'i values (uncompetitive inhibition constant), respectively.
# [2] = biological target: T1, Porcine pancreatic lipase (PL); test: Pancreatic lipase inhibition assay (pNPB substrate, absorbance 405 nm); format: biochemical; details: for IC50: pNPB substrate, Tris-HCl pH 7.5, 37°C
# Description: Grind small pieces of cod meat into surimi, add alkaline protease, and hydrolyze for 2 h. The enzyme was then inactivated by high temperature and centrifuged. Finally, the supernatant was spray dried to obtain cod peptide (CP). According to the method of Hou et al. ([28]), the PL inhibition test was carried out on the protein hydrolysates, its gel chromatography fraction, and the pure peptides. The sample and PL were dissolved in Tris-HCl buffer (pH = 7.5), and pNPB was dissolved in acetonitrile, and diluted with tris-HCl buffer. Add 100 μL of the sample, 200 μL of Tris-HCl buffer, 150 μL of PL (5 mg/mL) to a 1.5 mL EP tube, incubate at 37°C for 10 min, and then add 150 μL of […] pNPB, shake and mix, and incubate at 37°C for 10 min. After the reaction was completed, the absorbance value at 405 nm was measured with a multifunctional microplate reader, and the PL inhibitory activity was calculated according to the following equation: Inhibition rate (%) = 1- (absorbance in the presence of inhibitor/[…] in negative control) × 100%.
Substance,Ki [1],IC50 [2],"remaining activity at 6000 µg/mL ([2]; peptide concentration 6 mg/mL, read-out: residual activity on PL)"
GSPPPSG [GSPPPSG],4190 µM,1000 µM,
KLEGDLK [KLEGDLK],1400 µM,1350 µM,~10%
